This note sets out measurements from patent US7888347B2, “Pyrazolo [3,4-D]azepine derivatives as histamine H3 antagonists” (Glaxo Group Limited, priority 2005, dated 2011).

T1 sequence (Q9Y5N1 whole entry): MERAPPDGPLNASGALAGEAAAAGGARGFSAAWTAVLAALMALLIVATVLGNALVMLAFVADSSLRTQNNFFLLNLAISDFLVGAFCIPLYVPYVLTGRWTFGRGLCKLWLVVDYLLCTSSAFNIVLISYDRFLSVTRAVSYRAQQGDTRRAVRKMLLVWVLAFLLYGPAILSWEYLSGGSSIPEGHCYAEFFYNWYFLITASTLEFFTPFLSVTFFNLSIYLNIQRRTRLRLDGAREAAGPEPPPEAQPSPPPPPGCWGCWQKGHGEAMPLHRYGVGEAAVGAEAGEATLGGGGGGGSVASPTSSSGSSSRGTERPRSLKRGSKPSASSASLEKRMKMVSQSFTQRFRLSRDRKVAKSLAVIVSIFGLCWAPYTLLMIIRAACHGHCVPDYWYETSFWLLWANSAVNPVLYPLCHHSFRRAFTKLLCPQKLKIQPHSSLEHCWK

The experiment has as its target T1, histamine H3 receptor (Homo sapiens, UniProt Q9Y5N1).
T1 construct: expressed in transfected cells; host or cells: CHO K1 cells (pSwitch/pGene GeneSwitch system, mifepristone-induced), clone 3H3; membrane preparation
Nature of the experiment: Histamine H3 functional antagonist assay ([35S]-GTPγS SPA on membranes). It is filed as biochemical. Particulars: hydrochloride salts tested; membrane prepared from cultured H3 cells; averages of a number of experiments; read-out: functional pKi (fpKi), histamine H3 functional antagonism (converted). From the text: A membrane preparation containing histamine H3 receptors may be prepared in accordance with the following procedures:
(i) Generation of Histamine H3 Cell Line
DNA encoding the human histamine H3 gene (Huvar, A. et al. (1999) Mol. Pharmacol. 55(6), 1101-1107) was cloned into a holding vector, pCDNA3.1 TOPO (InVitrogen) and its cDNA was isolated from this vector by restriction digestion of plasmid DNA with the enzymes BamH1 and Not-1 and ligated into the inducible expression vector pGene (InVitrogen) digested with the same enzymes. The GeneSwitch™ system (a system where in transgene expression is switched off in the absence of an inducer and switched on in the presence of an inducer) was performed as described in U.S. Pat. Nos. 5,364,791; 5,874,534; and 5,935,934. Ligated DNA was transformed into competent DH5α E. coli host bacterial cells and plated onto Luria Broth (LB) agar containing Zeocin™ (an antibiotic which allows the selection of cells expressing the sh ble gene which is present on pGene and pSwitch) at 50 μg ml^−1. Colonies containing the re-ligated plasmid were identified by restriction analysis. DNA for transfection into mammalian cells was prepared from 250 ml cultures of the host bacterium containing the pGeneH3 plasmid and isolated using a DNA preparation kit (Qiagen Midi-Prep) as per manufacturers guidelines (Qiagen).
CHO K1 cells previously transfected with the pSwitch regulatory plasmid (InVitrogen) were seeded at 2×10e6 cells per T75 flask in Complete Medium, containing Hams F12 (GIBCOBRL, Life Technologies) medium supplemented with 10% v/v dialysed foetal bovine serum, L-glutamine, and hygromycin (100 μg ml^−1), 24 hours prior to use. Plasmid DNA was transfected into the cells using Lipofectamine plus according to the manufacturers guidelines (InVitrogen). 48 hours post transfection cells were placed into complete medium supplemented with 500 μg ml^−1 Zeocin™.
10-14 days post selection 10 nM Mifepristone (InVitrogen), was added to the culture medium to induce the expression of the receptor. 18 hours post induction cells were detached from the flask using ethylenediamine tetra-acetic acid (EDTA; 1:5000; InVitrogen), following several washes with phosphate buffered saline pH 7.4 and resuspended in Sorting Medium containing Minimum Essential Medium (MEM), without phenol red, and supplemented with Earles salts and 3% Foetal Clone II (Hyclone). Approximately 1×10e7 cells were examined for receptor expression by staining with a rabbit polyclonal antibody, 4a, raised against the N-terminal domain of the histamine H3 receptor, incubated on ice for 60 minutes, followed by two washes in sorting medium. Receptor bound antibody was detected by incubation of the cells for 60 minutes on ice with a goat anti rabbit antibody, conjugated with Alexa 488 fluorescence marker (Molecular Probes). Following two further washes with Sorting Medium, cells were filtered through a 50 μm Filcon™ (BD Biosciences) and then analysed on a FACS Vantage SE Flow Cytometer fitted with an Automatic Cell Deposition Unit. Control cells were non-induced cells treated in a similar manner. Positively stained cells were sorted as single cells into 96-well plates, containing Complete Medium containing 500 μg ml^−1 Zeocin™ and allowed to expand before reanalysis for receptor expression via antibody and ligand binding studies. One clone, 3H3, was selected for membrane preparation.
(ii) Membrane Preparation from Cultured Cells
All steps of the protocol are carried out at 4° C. and with pre-cooled reagents. The cell pellet is resuspended in 10 volumes of homogenisation buffer (50 mM N-2-hydroxyethylpiperazine-N′-2-ethanesulfonic acid (HEPES), 1 mM ethylenediamine tetra-acetic acid (EDTA), pH 7.4 with KOH), supplemented with 10e-4M leupeptin (acetyl-leucyl-leucyl-arginal; Sigma L2884), 25 μg/ml bacitracin (Sigma B0125), 1 mM phenylmethylsulfonyl fluoride (PMSF) and 2×10e-6M pepstatin A (Sigma). […]
In general terms: GTPγS resists hydrolysis and so accumulates on activated G proteins.
As for `CC(C)N1CCc2cn(-c3ccc(N4CCOC4=O)cc3)nc2CC1` [Example E9, 3-{4-[6-(1-Methylethyl)-5,6,7,8-tetrahydropyrazolo[3,4-d]azepin-2(4H)-yl]phenyl}-1,3-oxazolidin-2-one], the Ki was less than 1 nM.
For `CC(C)N1CCc2cn(-c3ccc(N4CCN(C)C4=O)cc3)nc2CC1` [Example E10, 1-Methyl-3-{4-[6-(1-methylethyl)-5,6,7,8-tetrahydropyrazolo[3,4-d]azepin-2(4H)-yl]phenyl}-2-imidazolidinone], the Ki is less than 1 nM.
The result for `O=C1CCCN1c1ccc(-n2cc3c(n2)CCN(C2CCC2)CC3)cn1` [Example E12, 1-[5-(6-Cyclobutyl-5,6,7,8-tetrahydropyrazolo[3,4-d]azepin-2(4H)-y)-2-pyridinyl]-2-pyrrolidinone] reads less than 1 nM; that for `O=C1CCCN1c1ccc(-n2cc3c(n2)CCN(C2CCC2)CC3)cc1` [Example E13], less than 0.316 nM.
As for `CC(C)N1CCc2cn(-c3ccc(N4CCCC4=O)cc3)nc2CC1` [Example E14, 1-{4-[6-(1-Methylethyl)-5,6,7,8-tetrahydropyrazolo[3,4-d]azepin-2(4H)-yl]phenyl}-2-pyrrolidinone], the Ki was less than 1 nM.
The result for `Cc1noc(-c2ccc(-n3cc4c(n3)CCN(C(C)C)CC4)cc2)n1` [Example E15, 6-(1-Methylethyl)-2-[4-(3-methyl-1,2,4-oxadiazol-5-yl)phenyl]-2,4,5,6,7,8-hexahydropyrazolo[3,4-d]azepine] reads less than 1 nM; that for `CCN1CCc2cn(-c3ccc(N4CCCC4=O)cc3)nc2CC1` [Example E18, 1-[4-(6-Ethyl-5,6,7,8-tetrahydropyrazolo[3,4-d]azepin-2(4H)-yl)phenyl]-2-pyrrolidinone], less than 0.316 nM.
The same measure for `CC(C)CN1CCc2cn(-c3ccc(N4CCCC4=O)cc3)nc2CC1` [Example E20]: less than 1 nM; for `O=C1CCCN1c1ccc(-n2cc3c(n2)CCN(C2CCCC2)CC3)cc1` [Example E24, 1-[4-(6-Cyclopentyl-5,6,7,8-tetrahydropyrazolo[3,4-d]azepin-2(4H)-yl)phenyl]-2-pyrrolidinone]: less than 1 nM.
Take `Cc1noc(-c2ccc(-n3cc4c(n3)CCN(C3CCC3)CC4)cc2)n1` [Example E25, 6-Cyclobutyl-2-[4-(3-methyl-1,2,4-oxadiazol-5-yl)phenyl]-2,4,5,6,7,8-hexahydropyrazolo[3,4-d]azepine]: the Ki was less than 1 nM.
As to `Cc1noc(-c2ccc(-n3cc4c(n3)CCN(C3CCCC3)CC4)cc2)n1` [Example E27, 6-Cyclopentyl-2-[4-(3-methyl-1,2,4-oxadiazol-5-yl)phenyl]-2,4,5,6,7,8-hexahydropyrazolo[3,4-d]azepine], the Ki is less than 1 nM.
The same measure for `O=C1OCCN1c1ccc(-n2cc3c(n2)CCN(C2CCCC2)CC3)cc1` [Example E30]: less than 1 nM; for `CN1CCN(c2ccc(-n3cc4c(n3)CCN(C3CCCC3)CC4)cc2)C1=O` [Example E31]: less than 1 nM; for `CN1CCN(c2ccc(-n3cc4c(n3)CCN(C3CCC3)CC4)cc2)C1=O` [Example E36]: less than 0.316 nM.
The same measure for `O=C1OCCN1c1ccc(-n2cc3c(n2)CCN(C2CCC2)CC3)cc1` [Example E37, 3-[4-(6-Cyclobutyl-5,6,7,8-tetrahydropyrazolo[3,4-d]azepin-2(4H)-yl)phenyl]-1,3-oxazolidin-2-one]: less than 0.316 nM.
The result for `c1cc(-n2cc3c(n2)CCN(C2CCC2)CC3)ccc1N1CCOCC1` [Example E39, 6-Cyclobutyl-2-[4-(4-morpholinyl)phenyl]-2,4,5,6,7,8-hexahydropyrazolo[3,4-d]azepine] reads less than 1 nM.
`CC(C)CN1CCc2cn(-c3ccc(N4CCOC4=O)cc3)nc2CC1` [Example E42]: the Ki is less than 1 nM.
The same measure for `Cc1ccc(N2CCC(n3cc4c(n3)CCN(C3CCC3)CC4)CC2)cn1` [Example E44, 6-Cyclobutyl-2-[1-(6-methyl-3-pyridinyl)-4-piperidinyl]-2,4,5,6,7,8-hexahydropyrazolo[3,4-d]azepine]: less than 1 nM.
